Among the data in patent US9914730B2, “Azaquinazoline inhibitors of Atypical protein Kinase C” (Ignyta, Inc., priority 2012, dated 2018) are IC50 values, retold here.

The experiment addresses T1, full-length human PKCι (Homo sapiens, UniProt P41743).
T1 construct: Recombinant, full-length human PKCι expressed in Sf21 insect cells is also commercially available; purchased; host or cells: Sf21 insect cells
T1 sequence (P41743 1-596): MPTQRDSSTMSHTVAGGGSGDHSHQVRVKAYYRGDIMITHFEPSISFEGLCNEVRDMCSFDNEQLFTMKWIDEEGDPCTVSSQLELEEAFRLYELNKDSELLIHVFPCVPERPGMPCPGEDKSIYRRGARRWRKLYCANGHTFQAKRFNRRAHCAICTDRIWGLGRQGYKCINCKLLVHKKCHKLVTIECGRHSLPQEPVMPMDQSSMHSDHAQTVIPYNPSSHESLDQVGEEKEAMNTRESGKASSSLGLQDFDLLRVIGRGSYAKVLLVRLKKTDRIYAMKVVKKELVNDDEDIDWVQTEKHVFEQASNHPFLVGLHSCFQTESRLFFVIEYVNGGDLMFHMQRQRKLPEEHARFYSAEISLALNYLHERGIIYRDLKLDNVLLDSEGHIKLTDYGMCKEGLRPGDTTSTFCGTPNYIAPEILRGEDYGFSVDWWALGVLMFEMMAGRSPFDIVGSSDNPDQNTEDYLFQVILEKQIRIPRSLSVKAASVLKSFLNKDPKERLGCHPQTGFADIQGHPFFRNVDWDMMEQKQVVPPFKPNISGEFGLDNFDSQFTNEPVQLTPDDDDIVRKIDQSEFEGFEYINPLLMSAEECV
The experiment in a line: PKCι IC50 IMAP assay, full-length PKCι at 150 μM ATP. The note with it: read-out: IC50 in IMAP assay against full length PKCi at 150 μM ATP. Format: biochemical. A digest of the protocol: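 IMAP fluorescence polarisation (ex 485/em 530 nm) read-out; % inhibition set from no-compound (0%) and no-enzyme (100%) controls, IC50 from dose-response curve fit. Sf21-expressed full-length enzyme ~15 pM, 100 nM FAM peptide, ATP 150 μM (5× KM^APP), 60 min at RT.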
For `C[C@H](Nc1cc(-c2nc(N3CCNCC3)c3c(C4CC4)cncc3n2)ccn1)c1ccccc1` [Example 587, [4-(5-Cyclopropyl-4-piperazin-1-yl-pyrido[3,4-d]pyrimidin-2-yl)-pyridin-2-yl]-((S)-1-phenyl-ethyl)-amine], the IC50 is less than 100 nM.

Consider `COc1cccc(Nc2cc(-c3nc(N4CCNCC4)c4c(C5CC5)cncc4n3)ccn2)n1` [Example 588, [4-(5-Cyclopropyl-4-piperazin-1-yl-pyrido[3,4-d]pyrimidin-2-yl)-pyridin-2-yl]-(6-methoxy-pyridin-2-yl)-amine], for which the IC50 is less than 100 nM.

Turning to `COc1cccc(Nc2cc(-c3nc(N4CCNCC4)c4c(C5CC5)cncc4n3)ccn2)c1F` [Example 589, [4-(5-Cyclopropyl-4-piperazin-1-yl-pyrido[3,4-d]pyrimidin-2-yl)-pyridin-2-yl]-(2-fluoro-3-methoxy-phenyl)-amine], the IC50 was less than 100 nM.

`COc1cc(F)c(Nc2cc(-c3nc(N4CCNCC4)c4c(C5CC5)cncc4n3)ccn2)c(F)c1` [Example 590, [4-(5-Cyclopropyl-4-piperazin-1-yl-pyrido[3,4-d]pyrimidin-2-yl)-pyridin-2-yl]-(2,6-difluoro-4-methoxy-phenyl)-amine]: the IC50 was less than 100 nM.

As to `COc1cccc(Nc2cc(-c3nc(N4CCNCC4)c4c(C5CC5)cncc4n3)ccn2)c1C` [Example 591, [4-(5-Cyclopropyl-4-piperazin-1-yl-pyrido[3,4-d]pyrimidin-2-yl)-pyridin-2-yl]-(3-methoxy-2-methyl-phenyl)-amine], the IC50 is less than 100 nM.

Consider `COc1ccc(Cl)c(Nc2cc(-c3nc(N4CCNCC4)c4c(C5CC5)cncc4n3)ccn2)c1` [Example 592, (2-Chloro-5-methoxy-phenyl)-[4-(5-cyclopropyl-4-piperazin-1-yl-pyrido[3,4-d]pyrimidin-2-yl)-pyridin-2-yl]-amine], for which the IC50 is less than 100 nM.

On to `Fc1ccc(Nc2cc(-c3nc(N4CCNCC4)c4c(C5CC5)cncc4n3)ccn2)cc1` [Example 594, [4-(5-Cyclopropyl-4-piperazin-1-yl-pyrido[3,4-d]pyrimidin-2-yl)-pyridin-2-yl]-(4-fluoro-phenyl)-amine], for which the IC50 is less than 100 nM.

With `FC(F)(F)c1ccc(Nc2cc(-c3nc(N4CCNCC4)c4c(C5CC5)cncc4n3)ccn2)cc1` [Example 595, [4-(5-Cyclopropyl-4-piperazin-1-yl-pyrido[3,4-d]pyrimidin-2-yl)-pyridin-2-yl]-(4-trifluoromethyl-phenyl)-amine], the IC50 was less than 100 nM.

Regarding `FC(F)(F)c1ccc(Cl)c(Nc2cc(-c3nc(N4CCNCC4)c4c(C5CC5)cncc4n3)ccn2)c1` [Example 597, (2-Chloro-5-trifluoromethyl-phenyl)-[4-(5-cyclopropyl-4-piperazin-1-yl-pyrido[3,4-d]pyrimidin-2-yl)-pyridin-2-yl]-amine], the IC50 fell in the range of 10000 to 40000 nM.

With `CC(C)(Nc1cc(-c2nc(N3CCNCC3)c3c(C4CC4)cncc3n2)ccn1)C(F)(F)F` [Example 598, [4-(5-Cyclopropyl-4-piperazin-1-yl-pyrido[3,4-d]pyrimidin-2-yl)-pyridin-2-yl]-(2,2,2-trifluoro-1,1-dimethyl-ethyl)-amine], the IC50 was less than 100 nM.

With `Fc1ccc(Nc2cc(-c3nc(N4CCNCC4)c4c(C5CC5)cncc4n3)ccn2)cc1F` [Example 599, [4-(5-Cyclopropyl-4-piperazin-1-yl-pyrido[3,4-d]pyrimidin-2-yl)-pyridin-2-yl]-(3,4-difluoro-phenyl)-amine], the IC50 was less than 100 nM.

Consider `Cn1ccc(Nc2cc(-c3nc(N4CCNCC4)c4c(C5CC5)cncc4n3)ccn2)n1` [Example 600, [4-(5-Cyclopropyl-4-piperazin-1-yl-pyrido[3,4-d]pyrimidin-2-yl)-pyridin-2-yl]-(l-methyl-1H-pyrazol-3-yl)-amine], for which the IC50 was in the range of 1000 to 10000 nM.

As for `FC1CCC(Nc2cc(-c3nc(N4CCNCC4)c4c(C5CC5)cncc4n3)ccn2)CC1` (stereo not shown) [Example 601, [4-(5-Cyclopropyl-4-piperazin-1-yl-pyrido[3,4-d]pyrimidin-2-yl)-pyridin-2-yl]-(4-fluorocyclohexyl)-amine], the IC50 is less than 100 nM.
